Reference: patent publication US20070105810A1, “THERAPEUTICS” (priority 2003, published 2007)
“Also recorded” adds a separate entry of the source. Counter-ions that a name gives are not always drawn.

Legend:
[1] = system: NAADP-sensitive release mechanism; assay: NAADP-mediated calcium release in sea urchin egg homogenate (Fluo-3); type: biochemical; settings: 250 nM NAADP, 2.5% homogenate, read-out: IC50, inhibition of NAADP calcium mobilization
Experimental: (§1) Samples diluted to 2.5% in GluIM in the presence of regenerating system and kept at 17° C. with agitation for 3 hours to facilitate calcium uptake into stores. Calcium release was determined by measuring increase in Fluo-3 fluorescence at 526 nm. Data expressed as % of 250 nM NAADP calcium release in the absence of CMA008 (1-Carbamoylmethyl-3-carboxy-pyridinium iodide). […] CMA008 has no effect on the total calcium mobilization by IP3 or cADPR (insert) indicating the selectivity of this compound on the NAADP-sensitive release mechanism.
(§2) • Subcellular fractions: calcium concentrations are measured with fluo-3 (3 μM) at physiological temperatures, using cell homogenates or subcellular fractions in a fluorimeter (Perkin-Elmer LS-50B) at 506 nm excitation and 526 nm emission. • Intact cells: Injected or hydrolysed ester derivatives of calcium sensitive dye are imaged in intact cells by laser-scanning confocal microscopy (TCS NT, Leica) Images were processed with the software NIH Image to create a self-ratio by dividing each image (F) by an image acquired before stimulation (Fo). [drawing 13] wherein R1, R2 and R3 are as defined herein. I Preparation of Nicotinic Acid Derivatives [drawing 14]

[2] = system: calcium mobilization by cADPR; assay: Calcium mobilization by cADPR in sea urchin egg homogenate; type: biochemical
Experimental: as §1, §2

[3] = system: NAADP-induced calcium release in intact sea urchin eggs; assay: Calcium release on photolysis of caged NAADP in intact sea urchin eggs; type: cell-based, Lytechinus pictus
Text: Sea urchin eggs were microinjected with a solution containing the calcium reporter dye, calcium green dextran, together with caged NAADP. Fluorescence was then imaged on a Leica confocal microscope using an excitation wavelength of 488 nm. In the control egg [see FIG. 6 A] a brief UV flash photolysed a proportion of the caged NAADP and evoked a large calcium transient.
Sea urchin eggs of Lytechinus pictus were obtained by intracoelomic injection of 0.5 M KCl shed into artificial sea water (in mM, NaCl 435, MgCl2 40, MgSO4 15, CaCl2 11, KCl 10, NaHCO3 2.5, EDTA 1), dejellied by passing through […] nylon mesh, and then washed twice by centrifugation. Eggs were transferred to polylysine-coated glass coverslips for microinjection and microscopy. Oregon Green 488 BAPTA (1,2-bis(2-aminophenoxy)ethane-N,N,N9,N9-tetraacetic acid dextran; Molecular Probes) was pressure-microinjected (Picospritzer; World Precision Instruments). The calcium-sensitive dye was imaged by laser-scanning confocal microscopy (Leica model TCS NT) using the 488-nm line of an argon ion laser for excitation, and the emission was long passfiltered (515 nm) and detected with a photomultiplier tube. Caged NAADP (^29P-(1-(2-nitrophenyl)ethyl) NAADP; Molecular Probes) was purified further by high performance liquid chromatography to remove small amounts of contaminating free NAADP. […]

[4] = system: calcium mobilization by IP3; assay: Calcium mobilization by IP3 in sea urchin egg homogenate; type: biochemical
Experimental: as §1, §2

[5] = system: pancreatic acinar cells; assay: CCK-induced oscillations of Ca2+ in pancreatic acinar cells; type: cell-based, mouse; settings: for CCK-evoked calcium spiking/oscillations: external application, 1 mM, pre- and post-applied with respect to CCK (5 pM)
Experimental: Pancreatic acinar cells were seeded onto poly-lysine-coated number 1 glass coverslips and loaded by incubating cells with 1-5 μM fura-2 acetoxymethylester (Molecular Probes; Leiden, Holland) for 60 min at room temperature. After the loading period, cells were subsequently washed and maintained in buffer at room temperature and used immediately. Cells were excited alternately with 340 and 380 nm light (emission 510 nm), and ratio image of clusters were recorded every 4-5 s, using a 12-bit CCD camera (MicroMax; Princeton Instruments, NJ). All experiment were conducted at room temperature. CMA008 (1-Carbamoylmethyl-3-carboxy-pyridinium iodide) is dissolved in 50% DMSO. Final concentration of DMSO is 0.5% in the solution (composition in mM: 140 NaCl, 4.7 KCl, 1 CaCl2, 1.13 MgCl2, 10 HEPES, 10 Glucose, pH adjusted to 7.2)
Pancreatic acinar cells were isolated from mice and dispersed by collagenase treatment. Cells were incubated with fura-2 AM for 30 min and washed before being imaged on a Metafluor system. The cells were alternately excited at 340/380 nm and emitted light collected at around 510 nm. The ratio of the intensities of emitted light at the two excitation wavelengths were calculated, converted to free calcium concentrations, and plotted again time.
Pancreatic acinar cells were seeded onto poly-lysine-coated number 1 glass coverslips and loaded with calcium indicator by incubating cells with […] fura-2 acetoxymethylester (Molecular Probes; Leiden, Holland) for 60 min at room temperature. After the loading period, cells were subsequently washed and maintained in buffer at room temperature and used immediately. Cells were excited alternately with 340 and 380 nm light (emission 510 nm), and ratio image of clusters 5 were recorded every 4-5 s, using a 12-bit CCD camera (MicroMax; Princeton Instruments, NJ).
All experiments were conducted at room temperature. CMA008 (1-Carbamoylmethyl-3-carboxy-pyridinium iodide) was dissolved in 50% DMSO. Final concentration of DMSO was 0.5% in the solution (composition in mM: 140 NaCl, 4.7 KCl, 1 CaCl2, 1.13 MgCl2, 10 HEPES, 10 Glucose, pH adjusted to 7.2). The inhibition of CCK-evoked calcium spiking, both pre- and post-applied with respect to CCK (5 pM), was consistent with inhibition of NAADP-induced calcium release by CMA008 (1 mM). The biological data for these experiments is presented in FIG. 7 (see also the description of the figures above).

[6] = system: NAADP binding site; assay: [32P]NAADP binding to sea urchin egg homogenate
Experimental: [^32P]NAADP binding to 0.5% sea urchin egg homogenate.
Competitive CMA008 (1-Carbamoylmethyl-3-carboxy-pyridinium iodide) displacement of [^32P]NAADP (0.2 nM). Samples diluted in GluIM (intracellular medium), pre-incubated with indicated concentration of CMA008 for 10 minutes, then 0.2 nM [^32P]NAADP added and incubated at room temperature for a further 15 mins. Samples filtered through Whatman GF/B filters to separate bound and free [^32P]NAADP ligand. Non specific binding is defined by incubation of the homogenate in the presence of 10 μM NAADP. n=2. Data expressed as a fraction of total binding.
2.5% sea urchin egg homogenate was diluted into GluIM pre-incubated with indicated concentration of CMA008 for 10 minutes at room temperature (A=100 nM, B=1 nM, C=10 μM). Subsequently, [^32P]NAADP was added and samples incubated for a further 15 minutes at room temperature. Samples were filtered through Whatman GF/B filters to separate bound and free [^32P]NAADP ligand.

[7] = system: transfer experimental autoimmune encephalomyelitis (EAE) in Lewis rats; assay: Transfer experimental autoimmune encephalomyelitis (EAE); type: in vivo, Lewis rat; settings: 50 μmol/100 g body weight i.p. twice per day; day 3.5 to day 6
Text: Transfer of MBP-specific CD4-positive T cells was used at day 0 to induce experimental autoimmune encephalomyelitis (EAE) in Lewis rats. Animals injected with PBS (vehicle) or nicotinic acid (control compound with structural similarities to BZ52) developed severe paralysis of tail and rear legs due to the inflammation. Clinical symptoms started day 3.5 and reached their maxima day 4 to 6 (or 6.5). Between day 3.5 and day 6, no difference between PBS and nicotinic acid was observed, whereas a beneficial effect of BZ52 was visible (FIG. 14).
Animals (6 per group, body weight approx. 150 g) were injected i.p. twice per day with either PBS (vehicle control), nicotinic acid (50 μmol/100 g body weight), or BZ 52 (50 μmol/100 g body weight). Clinical scores indicate the degree of paralysis of tail and legs. Data are presented as mean±SD from one representative experiment (n=6).
Animals (6 per group, body weight approx. 150 g) were injected i.p. twice per day with either PBS (vehicle control), nicotinic acid (50 μmol/100 g body weight), or BZ 52 (50 μmol/100 g body weight). […] Data are presented as mean±SD from one representative experiment (n=6).
5×10^6 activated MBP specific-GFP Tcells were transferred i.v. into recipient Lewis rats. Clinical EAE was graded in five scores: 0.5, loss of tail tonus; 1, tail paralysis; 2, gait disturbance; 3, hind limb paralysis; 4, tetraparesis; 5, death.
Animals' weight was measured twice a day.
In order to analyze the effect of BZ194 on encephalitogenic T cells during the effector phase of EAE we used retrovirally transduced MBP-specific T cells expressing the marker gene green fluorescent protein (TMBP-GFP cells).
Animals were treated for 5 d intraperitoneally with 500 μmol BZ194 or vehicle (DMSO).

For `COC(=O)c1ccc[n+](CCC(N)=O)c1` (as salt: iodide), the melting point was 98 to 100 °C.
For `CCN(CC)C(=O)C[n+]1cccc(C(=O)O)c1` (as salt: iodide) [Example 10, 3-Carboxy-1-diethylcarbamoylmethyl-pyridinium; iodide], the melting point was 97 to 100 °C.
In the case of `O=C(O)c1ccc[n+](Cc2ccccc2)c1` (as salt: bromide), the melting point is reported as 203 to 205 °C.
For `NC(=O)C[n+]1cccc(C(=O)O)c1` [CMA008, 1-Carbamoylmethyl-3-carboxy-pyridinium iodide], the IC50 [1] was 15.1 µM, the “effect on total calcium mobilization by cADPR” value [2] was “no effect” and the “calcium release on photolysis of caged NAADP” value ([3]; CMA008 10 mM applied externally in sea water, NPE-NAADP 1 μM) was “blocks; also recorded: failed to induce”. The cell membrane permeation ([3]; inferred from activity of compound applied outside the cell) was “permeates the cell membrane”, the “effect on total calcium mobilization by IP3” value [4] was “no effect” and the CCK-evoked calcium spiking ([5]; CMA008 1 mM added post-CCK (5 pM)) was “inhibition”. For the same compound, the resting calcium levels ([5]; CMA008 1 mM added pre-CCK) was “no apparent effect”, the “response to CCK” value ([5]; CMA008 1 mM added pre-CCK (5 pM)) was “a much smaller response to CCK was seen, with a greatly reduced frequency” and the CCK-evoked calcium spiking/oscillations [5] was “inhibition”. The CCK-evoked calcium spiking/oscillations ([5]; listed as CM008) was “inhibited or reduced”, the “effect on the Bmax” value ([6]; 1 nM and 100 nM CMA008) was “no effect” and the “Bmax (total specific binding of [32P]NAADP)” value ([6]; in the presence of 10 μM CMA008, 2.5% homogenate, 68.65%±2.7 in its absence) was 46.28%±2.61.
`COC(=O)c1ccc[n+](CCCC#N)c1` (as salt: iodide) showed a melting point of 167 to 170 °C.
In the case of `CCC[n+]1cccc(C(=O)O)c1` (as salt: iodide), the melting point is reported as 162 to 165 °C.
In the case of `CCN(CC)C(=O)C[n+]1cccc(C(=O)OC)c1` (as salt: iodide), the melting point is reported as 163 to 165 °C.
With `CCN(CC)CC[n+]1cccc(C(=O)OC)c1` (as salt: iodide) the melting point was 172 to 174 °C.
With `NC(=O)CC[n+]1cccc(C(=O)O)c1` (as salt: iodide) [Example 11, 1-(2-Carbamoyl-ethyl)-3-carboxy-pyridinium; iodide] the melting point was 170 to 173 °C.
In the case of `O=C(O)c1cccnc1` [nicotinic acid, reference compound], the “effect on [32P]NAADP binding to egg membranes” value ([6]; up to 1 mM, 0.2 nM [32P]NAADP, 0.5% homogenate) is reported as “without effect” and the “clinical symptoms (clinical score) vs PBS” value [7] is reported as “no difference”.
